# Measured values taken from US20250188092A1, “RIFAMYCIN ANALOGS” (THE REGENTS OF THE UNIVERSITY OF MICHIGAN, priority 2021, published 2025).
# What was measured:
# DPX2 cells = conditions: for DPX2 Viability @ 6.25 μM: 24 h; for DPX2 Viability @ 25 μM: human
# MTB H37Rv ATCC 27294 = assay: MIC, microplate Alamar Blue assay (MABA); assay type: cell-based, Mycobacterium tuberculosis; conditions: for MIC90: Mycobacterium tuberculosis, MTB H37Rv ATCC 27294, microplate Alamar Blue assay, lowest concentration giving ≥90% reduction in fluorescence
Compound,DPX2 Viability @ 6.25 μM (DPX2 cells) [%],DPX2 Viability @ 25 μM (DPX2 cells) [%],MIC90 MABA Rel to RMP (MTB H37Rv ATCC 27294),MIC90 (MTB H37Rv ATCC 27294) [nM]
"CO[C@H]1/C=C/O[C@@]2(C)Oc3c(C)c(O)c4c(=O)c(c5oc6cc(N7CCN(CC(C)C)CC7)cc(N7CCN(CC(C)C)CC7)c6nc-5c4c3C2=O)NC(=O)/C(C)=C\C=C\[C@H](C)[C@H](O)[C@@H](C)[C@@H](O)[C@@H](C)[C@H](OC(C)=O)[C@@H]1C [Compound 17u, 7S,9E,11S,12R,13S,14R,15R,16R,17S,18S,19E,21Z)-2,15,17-trihydroxy-11-methoxy-3,7,12,14,16,18,22-heptamethyl-30,32-bis[4-(2-methylpropyl)piperazin-1-yl]-6,23,37-trioxo-8,27,38-trioxa-24,34-diazahexacyclo[23.11.1.1^4,7.0^5,36.0^26,35.0^28,33]octatriaconta-1,3,5(36)9,19,21,25,28,30,32,34-undecaen-13-yl acetate]",106,90,,
"CO[C@H]1/C=C/O[C@@]2(C)Oc3c(C)c(O)c4c(=O)c(c5oc6cc(N7CCN(CCn8ccnc8)CC7)cc(C)c6nc-5c4c3C2=O)NC(=O)/C(C)=C\C=C\[C@H](C)[C@H](O)[C@@H](C)[C@@H](O)[C@@H](C)[C@H](OC(C)=O)[C@@H]1C [Compound 26c, (7S,9E,11S,12R,13S,14R,15R,16R,17S,18S,19E,21Z)-2,15,17-trihydroxy-30-{4-[2-(1H-imidazol-1-yl)ethyl]piperazin-1-yl}-11-methoxy-3,7,12,14,16,18,22,32-octamethyl-6,23,37-trioxo-8,27,38-trioxa-24,34-diazahexacyclo[23.11.1.1^4,7.0^5,36.0^26,35.0^28,33]octatriaconta-1(36)2,4,9,19,21,25,28,30,32,34-undecaen-13-yl acetate]",108,96,,
"CO[C@H]1/C=C/O[C@@]2(C)Oc3c(C)c(O)c4c(=O)c(c5oc6cc(N7CCN(C(C)=O)CC7)cc(C)c6nc-5c4c3C2=O)NC(=O)/C(C)=C\C=C\[C@H](C)[C@H](O)[C@@H](C)[C@@H](O)[C@@H](C)[C@H](OC(C)=O)[C@@H]1C [Compound 26d, (7S,9E,11S,12R,13S,14R,15R,16R,17S,18S,19E,21Z)-30-(4-Acetylpiperazin-1-yl)-2,15,17-trihydroxy-11-methoxy-3,7,12,14,16,18,22,32-octamethyl-6,23,37-trioxo-8,27,38-trioxa-24,34-diazahexacyclo[23.11.1.1^4,7.0^5,36.0^26,35.0^28,33]octatriaconta-1(36)2,4,9,19,21,25,28,30,32,34-undecaen-13-yl acetate]",106,88,0.35,9.4
"CCC(=O)N1CCN(c2cc(C)c3nc4c5c6c7c(C)c(O)c5c(=O)c(c-4oc3c2)NC(=O)/C(C)=C\C=C\[C@H](C)[C@H](O)[C@@H](C)[C@@H](O)[C@@H](C)[C@H](OC(C)=O)[C@H](C)[C@@H](OC)/C=C/O[C@@](C)(O7)C6=O)CC1 [Compound 26e, (7S,9E,11S,12R,13S,14R,15R,16R,17S,18S,19E,21Z)-2,15,17-Trihydroxy-11-methoxy-3,7,12,14,16,18,22,32-octamethyl-6,23,37-trioxo-30-(4-propanoylpiperazin-1-yl)-8,27,38-trioxa-24,34-diazahexacyclo[23.11.1.1^4,7.0^5,36.0^26,35.0^28,33]octatriaconta-1(36)2,4,9,19,21,25,28,30,32,34-undecaen-13-yl acetate]",101,97,0.35,9.4
"CO[C@H]1/C=C/O[C@@]2(C)Oc3c(C)c(O)c4c(=O)c(c5oc6cc(N7CCN(C(=O)C(C)(C)C)CC7)cc(C)c6nc-5c4c3C2=O)NC(=O)/C(C)=C\C=C\[C@H](C)[C@H](O)[C@@H](C)[C@@H](O)[C@@H](C)[C@H](OC(C)=O)[C@@H]1C [Compound 26f, (7S,9E,11S,12R,13S,14R,15R,16R,17S,18S,19E,21Z)-30-[4-(2,2-Dimethylpropanoyl)piperazin-1-yl]-2,15,17-trihydroxy-11-methoxy-3,7,12,14,16,18,22,32-octamethyl-6,23,37-trioxo-8,27,38-trioxa-24,34-diazahexacyclo[23.11.1.1^4,7.0^5,36.0^26,35.0^28,33]octatriaconta-1(36)2,4,9,19,21,25,28,30,32,34-undecaen-13-yl acetate]",111,102,0.17,4.6
"COC(=O)N1CCN(c2cc(C)c3nc4c5c6c7c(C)c(O)c5c(=O)c(c-4oc3c2)NC(=O)/C(C)=C\C=C\[C@H](C)[C@H](O)[C@@H](C)[C@@H](O)[C@@H](C)[C@H](OC(C)=O)[C@H](C)[C@@H](OC)/C=C/O[C@@](C)(O7)C6=O)CC1 [Compound 26g, Methyl 4-[(7S,9E,11S,12R,13S,14R,15R,16R,17S,18S,19E,21Z)-13-(acetyloxy)-2,15,17-trihydroxy-11-methoxy-3,7,12,14,16,18,22,32-octamethyl-6,23,37-trioxo-8,27,38-trioxa-24,34-diazahexacyclo[23.11.1.1^4,7.0^5,36.0^26,35.0^28,33]octatriaconta-1(36)2,4,9,19,21,25,28,30,32,34-undecaen-30-yl]piperazine-1-carboxylate]",111,105,0.18,5
"CCOC(=O)N1CCN(c2cc(C)c3nc4c5c6c7c(C)c(O)c5c(=O)c(c-4oc3c2)NC(=O)/C(C)=C\C=C\[C@H](C)[C@H](O)[C@@H](C)[C@@H](O)[C@@H](C)[C@H](OC(C)=O)[C@H](C)[C@@H](OC)/C=C/O[C@@](C)(O7)C6=O)CC1 [Compound 26h, Ethyl 4-[(7S,9E,11S,12R,13S,14R,15R,16R,17S,18S,19E,21Z)-13-(acetyloxy)-2,15,17-trihydroxy-11-methoxy-3,7,12,14,16,18,22,32-octamethyl-6,23,37-trioxo-8,27,38-trioxa-24,34-diazahexacyclo[23.11.1.1^4,7.0^5,36.0^26,35.0^28,33]octatriaconta-1(36)2,4,9,19,21,25,28,30,32,34-undecaen-30-yl]piperazine-1-carboxylate]",118,110,0.18,4.9
"CO[C@H]1/C=C/O[C@@]2(C)Oc3c(C)c(O)c4c(=O)c(c5oc6cc(N7CCN(C(=O)OC(C)(C)C)CC7)cc(C)c6nc-5c4c3C2=O)NC(=O)/C(C)=C\C=C\[C@H](C)[C@H](O)[C@@H](C)[C@@H](O)[C@@H](C)[C@H](OC(C)=O)[C@@H]1C [Compound 26i, tert-Butyl 4-[(7S,9E,11S,12R,13S,14R,15R,16R,17S,18S,19E,21Z)-13-(acetyloxy)-2,15,17-trihydroxy-11-methoxy-3,7,12,14,16,18,22,32-octamethyl-6,23,37-trioxo-8,27,38-trioxa-24,34-diazahexacyclo[23.11.1.1^4,7.0^5,36.0^26,35.0^28,33]octatriaconta-1(36)2,4,9,19,21,25,28,30,32,34-undecaen-30-yl]piperazine-1-carboxylate]",120,102,0.17,4.7
